Results published in the supplement of paper PMC10307832.

Key:
Test in all cases: relative viability (nuclei count vs DMSO), 5 days (fraction); higher = more cells survive
Wnt-C59 + Olaparib = compound: CC1=NC=CC(=C1)C2=CC=C(C=C2)CC(=O)NC3=CC=C(C=C3)C4=CN=CC=C4 [Wnt-C59] + O=C(c1cc(Cc2n[nH]c(=O)c3ccccc23)ccc1F)N1CCN(C(=O)C2CC2)CC1 [Olaparib] (partner 8 µM)
In short: (§1)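 Relative viability is defined as nuclei in treated wells over nuclei in vehicle wells. Duplicate plates were run and medians reported. Lung cancer cell lines in 1536-well plates were dosed by pin tool one day after seeding, with one drug or with a fixed anchor-drug dose plus five library-drug doses (not always all listed) in √10 steps, and nuclei were counted after 5 days.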

Lapatinib + Foretinib = compound: CS(=O)(=O)CCNCc1ccc(-c2ccc3ncnc(Nc4ccc(OCc5cccc(F)c5)c(Cl)c4)c3c2)o1 [Lapatinib] + COc1cc2c(Oc3ccc(NC(=O)C4(C(=O)Nc5ccc(F)cc5)CC4)cc3F)ccnc2cc1OCCCN1CCOCC1 [Foretinib] (partner 0.25 µM)
In short: as §1

Lapatinib + Pictilisib = compound: CS(=O)(=O)CCNCc1ccc(-c2ccc3ncnc(Nc4ccc(OCc5cccc(F)c5)c(Cl)c4)c3c2)o1 [Lapatinib] + CS(=O)(=O)N1CCN(Cc2cc3nc(-c4cccc5[nH]ncc45)nc(N4CCOCC4)c3s2)CC1 [Pictilisib] (partner 1 µM)
In short: as §1

Lapatinib + Alpelisib = compound: CS(=O)(=O)CCNCc1ccc(-c2ccc3ncnc(Nc4ccc(OCc5cccc(F)c5)c(Cl)c4)c3c2)o1 [Lapatinib] + Cc1nc(NC(=O)N2CCC[C@H]2C(N)=O)sc1-c1ccnc(C(C)(C)C(F)(F)F)c1 [Alpelisib] (partner 2 µM)
In short: as §1

Cell Line | relative viability (Wnt-C59 + Olaparib; first compound 0.001 µM) | relative viability (Wnt-C59 + Olaparib; first compound 0.03162 µM) | relative viability (Wnt-C59 + Olaparib; first compound 0.1 µM) | relative viability (Lapatinib + Foretinib; first compound 0.02 µM) | relative viability (Lapatinib + Foretinib; first compound 0.06325 µM) | relative viability (Lapatinib + Foretinib; first compound 0.2 µM) | relative viability (Lapatinib + Foretinib; first compound 0.6325 µM) | relative viability (Lapatinib + Foretinib; first compound 2 µM) | relative viability (Lapatinib + Pictilisib; first compound 0.02 µM) | relative viability (Lapatinib + Pictilisib; first compound 0.06325 µM) | relative viability (Lapatinib + Pictilisib; first compound 0.2 µM) | relative viability (Lapatinib + Pictilisib; first compound 0.6325 µM) | relative viability (Lapatinib + Pictilisib; first compound 2 µM) | relative viability (Lapatinib + Alpelisib; first compound 0.02 µM) | relative viability (Lapatinib + Alpelisib; first compound 0.06325 µM) | relative viability (Lapatinib + Alpelisib; first compound 0.2 µM) | relative viability (Lapatinib + Alpelisib; first compound 0.6325 µM) | relative viability (Lapatinib + Alpelisib; first compound 2 µM) | relative viability (Wnt-C59 + Olaparib; first compound 0.01 µM)
EKVX | 0.837 | 0.906 | 0.72 | 0.202 | 0.738 | 0.822 | 0.581 | 0.201 | 0.41 | 0.322 | 0.376 | 0.345 | 0.177 | 0.869 | 0.675 | 0.845 | 0.575 | 0.212 | –
EMC-BAC-2 | 0.497 | 0.486 | 0.482 | 0.953 | 0.844 | 0.969 | 0.86 | 0.857 | 0.355 | 0.433 | 0.504 | 0.581 | 0.493 | 0.72 | 0.652 | 0.694 | 0.622 | 0.592 | 0.488
EPLC-272H | 0.778 | 0.942 | 0.842 | – | – | 0.542 | 0.687 | 0.325 | – | 0.207 | 0.386 | 0.381 | 0.293 | – | 0.807 | 0.819 | 0.746 | 0.821 | 0.854
H3255 | 0.641 | 0.56 | 0.526 | 0.405 | 0.789 | 0.826 | 0.862 | 0.686 | 0.452 | 0.403 | 0.397 | 0.284 | 0.155 | 0.591 | 0.506 | 0.643 | 0.635 | 0.232 | 0.458
HARA | 0.826 | 0.866 | 0.856 | – | 0.593 | 0.843 | 0.631 | 0.401 | 0.418 | 0.261 | 0.527 | 0.33 | 0.288 | 0.739 | 0.573 | 0.593 | 0.625 | 0.288 | 0.784
HCC-15 | 0.745 | 0.738 | 0.667 | – | 0.812 | 1.02 | 0.949 | 0.971 | – | 0.734 | 0.767 | 0.725 | 0.638 | – | 0.799 | 0.843 | 0.857 | 0.797 | 0.73
HCC-78 | 0.883 | 0.855 | 0.633 | – | 0.427 | 0.446 | 0.429 | 0.401 | – | 0.265 | 0.196 | 0.21 | 0.208 | – | 0.277 | 0.305 | 0.26 | 0.15 | 0.852
HCC-366 | 0.346 | 0.362 | 0.34 | – | 0.86 | 0.887 | 0.912 | 0.89 | 0.133 | 0.0868 | 0.131 | 0.135 | 0.0768 | – | 0.282 | 0.381 | 0.446 | 0.242 | 0.359
HCC-827 | 0.668 | 0.689 | 0.587 | 1.08 | 0.974 | 1.05 | 0.97 | 0.155 | 0.947 | 1.13 | 0.891 | 1.02 | 0.574 | 0.89 | 0.957 | 0.957 | 0.914 | 0.434 | 0.594
HOP-62 | 0.523 | 0.363 | 0.343 | 1.14 | 1.16 | 1.03 | 1.09 | 1.13 | – | 0.66 | 0.76 | 0.816 | 0.672 | – | 0.618 | 0.861 | 1.14 | 0.856 | 0.266
IA-LM | 0.848 | 0.969 | 0.712 | 1.08 | 1.13 | 1.36 | 1.03 | 1.16 | 0.227 | 0.297 | 0.223 | 0.21 | 0.222 | 0.653 | 0.66 | 0.76 | 0.763 | 0.792 | 0.873
LC-2-ad | 0.725 | 0.716 | 0.356 | – | 0.655 | 0.872 | 0.769 | 0.567 | – | 0.425 | 0.543 | 0.431 | 0.322 | – | 0.796 | 0.856 | 0.877 | 0.73 | 0.74
LCLC-97TM1 | 0.403 | 0.358 | 0.323 | – | – | 0.843 | 0.973 | 1.02 | – | – | 0.223 | 0.227 | 0.203 | – | – | 0.232 | 0.284 | 0.257 | 0.434
LCLC-103H | 0.81 | 0.699 | 0.793 | 0.849 | 0.744 | 0.753 | 0.835 | 0.712 | – | 0.555 | 0.695 | 0.636 | 0.494 | – | 0.882 | 0.924 | 0.848 | 0.92 | 0.737
LK-2 | 0.728 | 0.739 | 0.748 | – | – | 1.39 | 1.42 | 1.07 | – | – | 0.424 | 0.615 | 0.531 | – | – | 0.938 | 1.13 | 1.01 | 0.819
LOU-NH91 | 0.966 | 0.955 | 0.883 | 0.902 | 0.815 | 0.689 | 0.604 | 0.498 | 0.395 | 0.451 | 0.425 | 0.513 | 0.447 | 0.661 | 0.557 | 0.533 | 0.508 | 0.472 | 0.873
LU99A | 0.28 | 0.29 | 0.23 | 0.784 | 0.72 | 0.74 | 0.836 | 0.815 | 0.337 | 0.26 | 0.345 | 0.346 | 0.372 | 0.564 | 0.476 | 0.527 | 0.524 | 0.54 | 0.264
LXF-289 | 1.14 | 1.03 | 1.04 | 0.996 | 0.953 | 0.967 | 0.948 | 0.851 | 0.762 | 0.717 | 0.744 | 0.784 | 0.737 | 0.987 | 1.04 | 1.06 | 0.987 | 0.922 | 1.09
NCI-H23 | 0.353 | 0.362 | 0.333 | – | – | 0.908 | 0.958 | 0.898 | – | – | 0.506 | 0.482 | 0.483 | – | – | 0.737 | 0.719 | 0.521 | 0.256
NCI-H322M | 0.704 | 0.828 | 0.765 | 1.04 | 0.809 | 0.944 | 0.911 | 0.611 | 0.555 | 0.31 | 0.483 | 0.504 | 0.404 | 0.776 | 0.669 | 0.808 | 0.73 | 0.773 | 0.804
NCI-H358 | 0.623 | 0.576 | 0.801 | 0.613 | 0.33 | 0.422 | 0.317 | 0.17 | 0.334 | – | 0.301 | 0.304 | 0.309 | 0.741 | – | 0.574 | 0.414 | 0.336 | 0.609
NCI-H441 | 0.569 | 0.633 | 0.447 | – | 0.931 | 1.01 | 0.822 | 1.1 | 0.332 | 0.417 | 0.431 | 0.422 | 0.453 | – | 0.65 | 0.68 | 0.617 | 0.799 | 0.632
NCI-H460 | 0.462 | 0.474 | 0.459 | 0.923 | 1 | 0.998 | 0.966 | 0.69 | 0.057 | 0.276 | 0.303 | 0.355 | 0.251 | 0.415 | 0.362 | 0.448 | 0.389 | 0.4 | 0.483
NCI-H520 | 0.299 | 0.381 | 0.357 | 0.891 | 0.672 | 0.855 | 1.01 | 0.67 | 0.308 | 0.285 | 0.269 | 0.332 | 0.348 | 0.961 | 0.805 | 0.912 | 1.02 | 0.807 | 0.313
NCI-H596 | 0.7 | 0.742 | 0.745 | – | 0.832 | 0.756 | 0.835 | 0.789 | 0.39 | 0.388 | 0.4 | 0.415 | 0.407 | 0.481 | 0.48 | 0.425 | 0.554 | 0.446 | 0.664
NCI-H647 | 0.579 | 0.762 | 0.513 | 1.06 | 1.16 | 1.22 | 1.01 | 1.2 | – | 0.435 | – | 0.364 | 0.431 | 1.01 | 0.779 | 1.06 | 1.14 | 1.01 | 0.539
NCI-H650 | 0.415 | 0.418 | 0.454 | – | 0.94 | 0.989 | 1.06 | 0.979 | – | 0.918 | 0.888 | 0.782 | 1.04 | – | 1.04 | 0.998 | 0.953 | 1.2 | 0.354
NCI-H661 | 0.739 | 0.797 | 0.698 | 0.972 | 0.926 | 0.856 | 0.666 | 0.62 | 0.397 | 0.381 | 0.29 | 0.307 | 0.324 | 0.646 | 0.637 | 0.468 | 0.45 | 0.36 | 0.73
NCI-H727 | 0.691 | 0.823 | 0.677 | 0.617 | – | 0.673 | 0.708 | 0.691 | 0.339 | 0.246 | 0.434 | 0.357 | 0.343 | 0.515 | 0.484 | 0.472 | 0.558 | 0.366 | 0.697
NCI-H838 | 0.765 | 0.807 | 0.739 | 1.1 | 0.951 | 1.14 | 1.06 | 0.866 | 0.48 | 0.409 | 0.505 | 0.449 | 0.458 | 1.05 | 0.88 | 1.07 | 0.967 | 0.912 | 0.806
